Assay results as given in article PMC4043709 (Drug Design, Development and Therapy, 2014).

Target: T1, ABCG2 (Homo sapiens, UniProt Q9UNQ0)
T1 sequence (Q9UNQ0 1-655): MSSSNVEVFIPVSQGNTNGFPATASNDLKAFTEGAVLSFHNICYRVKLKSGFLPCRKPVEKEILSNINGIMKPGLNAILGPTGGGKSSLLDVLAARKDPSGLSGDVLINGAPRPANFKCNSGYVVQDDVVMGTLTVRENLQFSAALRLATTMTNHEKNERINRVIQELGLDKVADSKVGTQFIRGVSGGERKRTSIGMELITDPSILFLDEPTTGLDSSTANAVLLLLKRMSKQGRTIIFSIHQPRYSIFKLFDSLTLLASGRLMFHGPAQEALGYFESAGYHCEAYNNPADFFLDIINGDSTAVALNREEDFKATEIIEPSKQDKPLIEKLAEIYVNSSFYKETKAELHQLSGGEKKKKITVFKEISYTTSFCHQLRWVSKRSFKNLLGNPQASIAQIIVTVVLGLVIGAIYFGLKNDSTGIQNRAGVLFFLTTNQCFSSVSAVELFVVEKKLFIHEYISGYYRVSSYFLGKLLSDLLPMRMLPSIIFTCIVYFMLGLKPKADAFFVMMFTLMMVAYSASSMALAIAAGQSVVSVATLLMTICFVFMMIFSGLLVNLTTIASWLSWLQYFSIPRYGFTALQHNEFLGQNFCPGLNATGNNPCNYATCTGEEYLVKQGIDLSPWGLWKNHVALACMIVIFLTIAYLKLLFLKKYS
Assay: ABCG2-mediated mitoxantrone efflux
Type: cell-based
Conditions: 6 versus 3; 10 versus 5

SMILES: COc1cc(C(=O)/C=C/c2ccc3nccnc3c2)ccc1O [Compound 6, (2E)-1-(3′-methoxy,4′-hydroxy-phenyl)-3-(quinoxalin-6-yl)-2-propen-1-one]
- fold decrease of inhibition caused by hydroxyl group at 4′ position: 8 fold

SMILES: COc1cc(C(=O)/C=C/c2ccc3nccnc3c2)cc(OC)c1O [Compound 10, (2E)-1-(3′,5′-dimethoxy,4′-hydroxy-phenyl)-3-(quinoxalin-6-yl)-2-propen-1-one]
- fold decrease of inhibition caused by hydroxyl group at 4′ position: 5 fold
